Measurements taken from patent US20050222200A1, “AMIDE DERIVATIVES AS ION CHANNEL LIGANDS AND PHARMACEUTICAL COMPOSITIONS AND METHODS OF USING THE SAME” (Renovis, Inc., priority 2003, published 2005).

The compounds below were run against VR1 (Rattus norvegicus, UniProt O35433) (assay: Calcium imaging assay: inhibition of capsaicin induced calcium influx in DRG neurons (Fura2, microscope)). Conditions: capsaicin stimulation; class symbols per legend.
Chain of VR1 (O35433 whole entry): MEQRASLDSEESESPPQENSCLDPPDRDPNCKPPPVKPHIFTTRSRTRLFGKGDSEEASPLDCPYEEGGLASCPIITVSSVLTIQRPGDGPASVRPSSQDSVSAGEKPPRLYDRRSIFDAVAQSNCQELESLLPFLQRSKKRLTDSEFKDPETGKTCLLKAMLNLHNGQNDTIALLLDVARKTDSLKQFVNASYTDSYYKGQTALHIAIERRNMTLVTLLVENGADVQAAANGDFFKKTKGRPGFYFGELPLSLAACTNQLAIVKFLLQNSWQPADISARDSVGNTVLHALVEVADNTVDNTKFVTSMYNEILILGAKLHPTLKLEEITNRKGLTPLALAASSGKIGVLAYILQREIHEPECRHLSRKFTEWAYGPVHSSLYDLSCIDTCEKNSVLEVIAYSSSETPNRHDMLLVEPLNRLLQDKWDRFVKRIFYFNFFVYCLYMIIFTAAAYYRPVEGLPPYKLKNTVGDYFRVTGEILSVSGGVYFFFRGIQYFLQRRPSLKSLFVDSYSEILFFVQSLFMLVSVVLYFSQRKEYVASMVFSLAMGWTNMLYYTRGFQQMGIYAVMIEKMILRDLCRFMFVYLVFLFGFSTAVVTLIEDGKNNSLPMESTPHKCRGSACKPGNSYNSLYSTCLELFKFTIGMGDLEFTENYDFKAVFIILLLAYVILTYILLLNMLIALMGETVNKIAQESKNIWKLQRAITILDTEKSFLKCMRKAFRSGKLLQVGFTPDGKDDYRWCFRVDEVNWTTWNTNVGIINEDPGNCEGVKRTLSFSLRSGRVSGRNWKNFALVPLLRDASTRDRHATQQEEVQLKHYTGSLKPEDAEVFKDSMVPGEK
Type: cell-based
Set-up: endogenous in cells; host or cells: DRG neurons
Description: VR1 protein is a heat-gated cation channel that […] resulting in neuronal membrane depolarization and elevated intracellular calcium levels. Therefore the functional activity of compounds at the VR1 receptor may be determined by measuring changes in intracellular calcium levels in neurons such as the dorsal root ganglion.
DRG neurons were grown on PDL coated 96-well black-walled plates, in the presence of DMEM medium containing 5% Penstrep, 5% Glutamax, 200 μg/ml hygromycin, 5 μg/ml blasticide and 10% heat inactivated FBS. Prior to assay, cells were loaded with 5 μg/ml Fura2 in normal saline solution at 37° C for 40 minutes. Cells were then washed with normal saline to remove dye before commencement of the experiment.
The plated neurons were transferred into a chamber on the stage of a Nikon eclipse TE300 microscope after which neurons were allowed to attain a stable fluorescence for about 10 minutes before beginning the experiment. The assay consists of two stages, a pretreatment phase followed by a treatment phase. First, a solution of the test compound was added from a multivalve perfusion system to the cells for 1 minute (pretreatment). Immediately following, capsaicin (250 nM) was added in the presence of the test compound (treatment) for a specific period between 20 and 60 seconds.
Fura2 was excited at […] to indicate relative calcium ion concentration. Changes in wavelength measurements were made throughout the course of the experiment. The fluorescence ratio was calculated by dividing fluorescence measured at 340 nm by that at 380 nM. Data was collected using Intelligent Imaging’s Slidebook software. All compounds that inhibited capsaicin induced calcium influx greater than 75% were considered positives.
Fluorescence reflecting calcium ion influx is reduced.
`C/C(=C\C(C)(C)C)c1ccc(C(=O)NCCc2cnc[nH]2)cc1` [Compound 356] was tested, and the “inhibition of calcium ion influx induced by capsaicin stimulation” value (shortened to “inhibition of calcium ion influx induced”) was “+ (compound exhibited 0-25% inhibition of calcium ion influx induced by capsaicin stimulation)”. With `CC(C)(C)C#Cc1ccc(C(=O)Nc2ccc3c(c2)OCO3)cn1` [Compound 438] the “inhibition of calcium ion influx induced” value was “++++ (compound exhibited 75% or greater inhibition of calcium ion influx induced by capsaicin stimulation)”. With `COc1ccc(NC(=O)c2ccc(C#CC(C)(C)C)nc2)cn1` [Compound 435] the “inhibition of calcium ion influx induced” value was “+ (compound exhibited 0-25% inhibition of calcium ion influx induced by capsaicin stimulation)”. In the case of `CC(C)(C)C#Cc1ccc(C(=O)Nc2cccc3cnccc23)cn1` [Compound 428], the “inhibition of calcium ion influx induced” value is reported as “++++ (compound exhibited 75% or greater inhibition of calcium ion influx induced by capsaicin stimulation)”. For `CC(C)(C)C#Cc1ccc(C(=O)Nc2ccc(OC(F)(F)F)cc2)cn1` [Compound 425], the “inhibition of calcium ion influx induced” value was “+ (compound exhibited 0-25% inhibition of calcium ion influx induced by capsaicin stimulation)”. `C/C(=C\C(C)(C)C)c1ccc(C(=O)NCc2cccnc2)cc1` [Compound 357] was tested, and the “inhibition of calcium ion influx induced” value was “+ (compound exhibited 0-25% inhibition of calcium ion influx induced by capsaicin stimulation)”. `Cn1ccc2cc(NC(=O)c3ccc(C#CC(C)(C)C)nc3)ccc21` [Compound 437] was tested, and the “inhibition of calcium ion influx induced” value was “++++ (compound exhibited 75% or greater inhibition of calcium ion influx induced by capsaicin stimulation)”. In the case of `CCC/C=C/c1ccc(C(=O)Nc2ccnc(Cl)c2)cc1` [Compound 261], the “inhibition of calcium ion influx induced” value is reported as “+ (compound exhibited 0-25% inhibition of calcium ion influx induced by capsaicin stimulation)”. In the case of `CCCCc1ccc(NC(=O)c2ccc(C#CC(C)(C)C)nc2)cc1` [Compound 421], the “inhibition of calcium ion influx induced” value is reported as “++ (compound exhibited 25-50% inhibition of calcium ion influx induced by capsaicin stimulation)”. For `C/C(=C\C(C)(C)C)c1ccc(C(=O)Nc2ccccc2O)cc1` [Compound 313], the “inhibition of calcium ion influx induced” value was “+ (compound exhibited 0-25% inhibition of calcium ion influx induced by capsaicin stimulation)”. With `CCC/C=C/c1ccc(C(=O)Nc2ccccc2CCO)cc1` [Compound 245] the “inhibition of calcium ion influx induced” value was “+ (compound exhibited 0-25% inhibition of calcium ion influx induced by capsaicin stimulation)”. In the case of `CC(C)(C)C#Cc1ccc(C(=O)Nc2ccc(Cl)nc2)cc1` [Compound 384], the “inhibition of calcium ion influx induced” value is reported as “++++ (compound exhibited 75% or greater inhibition of calcium ion influx induced by capsaicin stimulation)”. With `CC(C)(C)C#Cc1ccc(C(=O)Nc2ccc(Cl)c(C(F)(F)F)c2)cn1` [Compound 418] the “inhibition of calcium ion influx induced” value was “++++ (compound exhibited 75% or greater inhibition of calcium ion influx induced by capsaicin stimulation)”. In the case of `CC(C)(C)C#Cc1ccc(C(=O)Nc2ccc(Cl)nc2)cn1` [Compound 434], the “inhibition of calcium ion influx induced” value is reported as “+ (compound exhibited 0-25% inhibition of calcium ion influx induced by capsaicin stimulation)”. With `CC(C)(C)C#Cc1ccc(C(=O)Nc2ccc3c(c2)OCCO3)cc1` [Compound 373] the “inhibition of calcium ion influx induced” value was “++++ (compound exhibited 75% or greater inhibition of calcium ion influx induced by capsaicin stimulation)”. With `CCC/C=C/c1ccc(C(=O)Nc2cc(C)ccn2)cc1` [Compound 234] the “inhibition of calcium ion influx induced” value was “+ (compound exhibited 0-25% inhibition of calcium ion influx induced by capsaicin stimulation)”. For `CC(C)(C)C#Cc1ccc(C(=O)Nc2ccc(C(F)(F)F)cc2)cn1` [Compound 417], the “inhibition of calcium ion influx induced” value was “++++ (compound exhibited 75% or greater inhibition of calcium ion influx induced by capsaicin stimulation)”. For `CC(C)(C)C#Cc1ccc(C(=O)Nc2ccc(Br)cn2)cc1` [Compound 382], the “inhibition of calcium ion influx induced” value was “++ (compound exhibited 25-50% inhibition of calcium ion influx induced by capsaicin stimulation)”. For `C/C(=C\C(C)(C)C)c1ccc(C(=O)NCc2ccncc2)cc1` [Compound 281], the “inhibition of calcium ion influx induced” value was “+ (compound exhibited 0-25% inhibition of calcium ion influx induced by capsaicin stimulation)”. `COc1cccc(NC(=O)c2ccc(C#CC(C)(C)C)nc2)c1` [Compound 414] was tested, and the “inhibition of calcium ion influx induced” value was “++++ (compound exhibited 75% or greater inhibition of calcium ion influx induced by capsaicin stimulation)”. For `CC(C)(C)C#Cc1ccc(C(=O)Nc2ccc(C(F)(F)F)cc2)cc1` [Compound 367], the “inhibition of calcium ion influx induced” value was “++ (compound exhibited 25-50% inhibition of calcium ion influx induced by capsaicin stimulation)”. For `C/C(=C\C(C)(C)C)c1ccc(C(=O)Nc2ccc(C(C)(C)C)cc2)cc1` [Compound 334], the “inhibition of calcium ion influx induced” value was “+++ (compound exhibited 50-75% inhibition of calcium ion influx induced by capsaicin stimulation)”. `COc1cc(NC(=O)c2ccc(C#CC(C)(C)C)cc2)cc(C(F)(F)F)c1` [Compound 372] was tested, and the “inhibition of calcium ion influx induced” value was “++++ (compound exhibited 75% or greater inhibition of calcium ion influx induced by capsaicin stimulation)”. With `C/C(=C\C(C)(C)C)c1ccc(C(=O)NCCc2ccc(S(N)(=O)=O)cc2)cc1` [Compound 304] the “inhibition of calcium ion influx induced” value was “+ (compound exhibited 0-25% inhibition of calcium ion influx induced by capsaicin stimulation)”. With `C/C(=C\C(C)(C)C)c1ccc(C(=O)NC2CCC(C(C)(C)C)CC2)cc1` (stereo not drawn) [Compound 287] the “inhibition of calcium ion influx induced” value was “+ (compound exhibited 0-25% inhibition of calcium ion influx induced by capsaicin stimulation)”. With `CC(C)c1ccc(NC(=O)c2ccc(C#CC(C)(C)C)nc2)cc1` [Compound 420] the “inhibition of calcium ion influx induced” value was “+++ (compound exhibited 50-75% inhibition of calcium ion influx induced by capsaicin stimulation)”. For `O=C(Nc1cccc(C(F)(F)F)c1)c1ccc(/C=C/C(F)(F)F)cc1` [Compound 398], the “inhibition of calcium ion influx induced” value was “++++ (compound exhibited 75% or greater inhibition of calcium ion influx induced by capsaicin stimulation)”. For `Cn1ccc2cc(NC(=O)c3ccc(C#CC(C)(C)C)cc3)ccc21` [Compound 387], the “inhibition of calcium ion influx induced” value was “++++ (compound exhibited 75% or greater inhibition of calcium ion influx induced by capsaicin stimulation)”. With `CC(C)Oc1cccc(NC(=O)c2ccc(C#CC(C)(C)C)cc2)c1` [Compound 376] the “inhibition of calcium ion influx induced” value was “+++ (compound exhibited 50-75% inhibition of calcium ion influx induced by capsaicin stimulation)”. `CCC/C=C/c1ccc(C(=O)Nc2ccccc2Cl)cc1` [Compound 233] was tested, and the “inhibition of calcium ion influx induced” value was “+ (compound exhibited 0-25% inhibition of calcium ion influx induced by capsaicin stimulation)”. With `C/C(=C\C(C)(C)C)c1ccc(C(=O)Nc2cc(C)ccn2)cc1` [Compound 324] the “inhibition of calcium ion influx induced” value was “+ (compound exhibited 0-25% inhibition of calcium ion influx induced by capsaicin stimulation)”. In the case of `COc1ccccc1CNC(=O)c1ccc(/C(C)=C/C(C)(C)C)cc1` [Compound 275], the “inhibition of calcium ion influx induced” value is reported as “+ (compound exhibited 0-25% inhibition of calcium ion influx induced by capsaicin stimulation)”. `CC(C)(C)C#Cc1ccc(C(=O)Nc2ccc(C(C)(C)C)cc2)cn1` [Compound 419] was tested, and the “inhibition of calcium ion influx induced” value was “++++ (compound exhibited 75% or greater inhibition of calcium ion influx induced by capsaicin stimulation)”. `COc1ccc(NC(=O)c2ccc(C#CC(C)(C)C)cc2)cn1` [Compound 385] was tested, and the “inhibition of calcium ion influx induced” value was “++++ (compound exhibited 75% or greater inhibition of calcium ion influx induced by capsaicin stimulation)”. In the case of `CC(C)(C)C#Cc1ccc(C(=O)Nc2cccc(S(C)(=O)=O)c2)cc1` [Compound 412], the “inhibition of calcium ion influx induced” value is reported as “++++ (compound exhibited 75% or greater inhibition of calcium ion influx induced by capsaicin stimulation)”. In the case of `CCN(CC)CCOC(=O)c1ccc(NC(=O)c2ccc(C#CC(C)(C)C)cc2)cc1` [Compound 363], the “inhibition of calcium ion influx induced” value is reported as “+++ (compound exhibited 50-75% inhibition of calcium ion influx induced by capsaicin stimulation)”. `C/C(=C/C(C)(C)C)c1ccc(C(=O)Nc2ccc3ccccc3c2)cc1` [Compound 358] was tested, and the “inhibition of calcium ion influx induced” value was “++++ (compound exhibited 75% or greater inhibition of calcium ion influx induced by capsaicin stimulation)”. For `COc1ccc(NC(=O)c2ccc(C#CC(C)(C)C)cc2)cc1Cl` [Compound 366], the “inhibition of calcium ion influx induced” value was “++ (compound exhibited 25-50% inhibition of calcium ion influx induced by capsaicin stimulation)”. In the case of `C/C(=C\C(C)(C)C)c1ccc(C(=O)NCc2cccs2)cc1` [Compound 316], the “inhibition of calcium ion influx induced” value is reported as “++ (compound exhibited 25-50% inhibition of calcium ion influx induced by capsaicin stimulation)”.
